From patent US9723840B2 (SYNGENTA PARTICIPATIONS AG, priority 2013, dated 2017)

Columns and labels:
Assay type in all cases: in vivo
Amaranthus retroflexus [1] = experiment: Pre-emergence herbicidal activity, AMARE; design: key: 5=total damage to plant; 0=no damage to plant; conditions: 1000 g/Ha, pre-emergence spray, evaluated after 13 days, scale 0-5
Method: (§1) Seeds of a variety of test species were sown in standard soil in pots. After cultivation for one day (pre-emergence) under controlled conditions in a glasshouse (at 24/16° C., day/night; 14 hours light; 65% humidity), the plants were sprayed with an aqueous spray solution derived from the formulation of the technical active ingredient in acetone/water (50:50) solution containing 0.5% Tween 20 (polyoxyethelyene sorbitan monolaurate, CAS RN 9005-64-5). The test plants were then grown in a glasshouse under controlled conditions (at 24/16° C., day/night; 14 hours light; 65% humidity) and watered twice daily. After 13 days, the test was evaluated (5=total damage to plant; 0=no damage to plant).

Abutilon theophrasti [2] = experiment: Pre-emergence herbicidal activity, ABUTH; design: key: 5=total damage to plant; 0=no damage to plant; conditions: 1000 g/Ha, pre-emergence spray, evaluated after 13 days, scale 0-5
Method: as §1

Setaria faberi [3] = experiment: Pre-emergence herbicidal activity, SETFA; design: key: 5=total damage to plant; 0=no damage to plant; conditions: 1000 g/Ha, pre-emergence spray, evaluated after 13 days, scale 0-5
Method: as §1

Echinochloa crus-galli [4] = experiment: Pre-emergence herbicidal activity, ECHCG; design: key: 5=total damage to plant; 0=no damage to plant; conditions: 1000 g/Ha, pre-emergence spray, evaluated after 13 days, scale 0-5
Method: as §1

Zea mays [5] = experiment: Pre-emergence herbicidal activity, ZEAMX; conditions: 1000 g/Ha, pre-emergence spray, evaluated after 13 days, scale 0-5
Method: as §1

Amaranthus retroflexus [6] = experiment: Post-emergence herbicidal activity, AMARE; design: key: 5=total damage to plant; 0=no damage to plant; conditions: 1000 g/Ha, post-emergence spray (8 days cultivation), evaluated after 13 days, scale 0-5
Method: (§2) Seeds of a variety of test species were sown in standard soil in pots. After 8 days cultivation (post-emergence) under controlled conditions in a glasshouse (at 24/16° C., day/night; 14 hours light; 65% humidity), the plants were sprayed with an aqueous spray solution derived from the formulation of the technical active ingredient in acetone/water (50:50) solution containing 0.5% Tween 20 (polyoxyethelyene sorbitan monolaurate, CAS RN 9005-64-5). The test plants were then grown in a glasshouse under controlled conditions (at 24/16° C., day/night; 14 hours light; 65% humidity) and watered twice daily. After 13 days, the test was evaluated (5=total damage to plant; 0=no damage to plant).

Abutilon theophrasti [7] = experiment: Post-emergence herbicidal activity, ABUTH; design: key: 5=total damage to plant; 0=no damage to plant; conditions: 1000 g/Ha, post-emergence spray (8 days cultivation), evaluated after 13 days, scale 0-5
Method: as §2

Echinochloa crus-galli [8] = experiment: Post-emergence herbicidal activity, ECHCG; design: key: 5=total damage to plant; 0=no damage to plant; conditions: 1000 g/Ha, post-emergence spray (8 days cultivation), evaluated after 13 days, scale 0-5
Method: as §2

Zea mays [9] = experiment: Post-emergence herbicidal activity, ZEAMX; design: key: 5=total damage to plant; 0=no damage to plant; conditions: 1000 g/Ha, post-emergence spray (8 days cultivation), evaluated after 13 days, scale 0-5
Method: as §2

Setaria faberi [10] = experiment: Post-emergence herbicidal activity, SETFA; design: key: 5=total damage to plant; 0=no damage to plant; conditions: 1000 g/Ha, post-emergence spray (8 days cultivation), evaluated after 13 days, scale 0-5
Method: as §2

Alopecurus myosuroides [11] = experiment: Pre-emergence herbicidal activity, ALOMY; conditions: 1000 g/Ha, pre-emergence spray, evaluated after 13 days, scale 0-5
Method: as §1

Alopecurus myosuroides [12] = experiment: Post-emergence herbicidal activity, ALOMY; design: key: 5=total damage to plant; 0=no damage to plant; conditions: 1000 g/Ha, post-emergence spray (8 days cultivation), evaluated after 13 days, scale 0-5
Method: as §2

CN1CC(O)N(c2ccc(C(=O)NC(C)(C)C)nn2)C1=O (centres unmarked) [Example A25]
AMARE damage score, application pre-emergence (Amaranthus retroflexus [1]): 5 | ABUTH damage score, application pre-emergence (Abutilon theophrasti [2]): 5 | SETFA damage score, application pre-emergence (Setaria faberi [3]): 5 | ECHCG damage score, application pre-emergence (Echinochloa crus-galli [4]): 5 | ZEAMX damage score, application pre-emergence (Zea mays [5]): 2 | AMARE damage score, application post-emergence (Amaranthus retroflexus [6]): 5 | ABUTH damage score, application post-emergence (Abutilon theophrasti [7]): 5 | ECHCG damage score, application post-emergence (Echinochloa crus-galli [8]): 5 | ZEAMX damage score, application post-emergence (Zea mays [9]): 3 | SETFA damage score, application post-emergence (Setaria faberi [10]): 5

CN1CC(O)N(c2cc(C(F)(F)F)c(Cl)nn2)C1=O (centres unmarked) [Example A5, 3-[6-chloro-5-(trifluoromethyl)pyridazin-3-yl]-4-hydroxy-1-methyl-imidazolidin-2-one]
AMARE damage score, application pre-emergence (Amaranthus retroflexus [1]): 5 | ABUTH damage score, application pre-emergence (Abutilon theophrasti [2]): 5 | SETFA damage score, application pre-emergence (Setaria faberi [3]): 5 | ECHCG damage score, application pre-emergence (Echinochloa crus-galli [4]): 4 | ALOMY damage score, application pre-emergence (Alopecurus myosuroides [11]): 4 | ZEAMX damage score, application pre-emergence (Zea mays [5]): 2 | AMARE damage score, application post-emergence (Amaranthus retroflexus [6]): 5 | ABUTH damage score, application post-emergence (Abutilon theophrasti [7]): 5 | ALOMY damage score, application post-emergence (Alopecurus myosuroides [12]): 4 | ECHCG damage score, application post-emergence (Echinochloa crus-galli [8]): 5 | ZEAMX damage score, application post-emergence (Zea mays [9]): 4 | SETFA damage score, application post-emergence (Setaria faberi [10]): 5

CCOC1C(O)N(c2cc(C(C)(F)F)c(Cl)nn2)C(=O)N1C (centres unmarked) [Example A10]
AMARE damage score, application pre-emergence (Amaranthus retroflexus [1]): 5 | ABUTH damage score, application pre-emergence (Abutilon theophrasti [2]): 5 | SETFA damage score, application pre-emergence (Setaria faberi [3]): 5 | ECHCG damage score, application pre-emergence (Echinochloa crus-galli [4]): 4 | ALOMY damage score, application pre-emergence (Alopecurus myosuroides [11]): 4 | ZEAMX damage score, application pre-emergence (Zea mays [5]): 4 | AMARE damage score, application post-emergence (Amaranthus retroflexus [6]): 5 | ABUTH damage score, application post-emergence (Abutilon theophrasti [7]): 5 | ALOMY damage score, application post-emergence (Alopecurus myosuroides [12]): 5 | ECHCG damage score, application post-emergence (Echinochloa crus-galli [8]): 5 | ZEAMX damage score, application post-emergence (Zea mays [9]): 4 | SETFA damage score, application post-emergence (Setaria faberi [10]): 5

CCOC1C(O)N(c2cc(C(F)(F)F)cnn2)C(=O)N1C (centres unmarked) [Example A24]
AMARE damage score, application pre-emergence (Amaranthus retroflexus [1]): 5 | ABUTH damage score, application pre-emergence (Abutilon theophrasti [2]): 5 | SETFA damage score, application pre-emergence (Setaria faberi [3]): 5 | ECHCG damage score, application pre-emergence (Echinochloa crus-galli [4]): 4 | ZEAMX damage score, application pre-emergence (Zea mays [5]): 2 | ECHCG damage score, application post-emergence (Echinochloa crus-galli [8]): 5

CN1C(=O)N(c2cc(C(F)(F)F)c(Cl)nn2)C(O)C1O (centres unmarked) [Example A22]
AMARE damage score, application pre-emergence (Amaranthus retroflexus [1]): 5 | ABUTH damage score, application pre-emergence (Abutilon theophrasti [2]): 5 | SETFA damage score, application pre-emergence (Setaria faberi [3]): 4 | ECHCG damage score, application pre-emergence (Echinochloa crus-galli [4]): 2 | ZEAMX damage score, application pre-emergence (Zea mays [5]): 1 | AMARE damage score, application post-emergence (Amaranthus retroflexus [6]): 5 | ABUTH damage score, application post-emergence (Abutilon theophrasti [7]): 5 | ECHCG damage score, application post-emergence (Echinochloa crus-galli [8]): 5 | ZEAMX damage score, application post-emergence (Zea mays [9]): 3 | SETFA damage score, application post-emergence (Setaria faberi [10]): 5

CCOC1C(O)N(c2cc(C(F)(F)F)c(Cl)nn2)C(=O)N1C (centres unmarked) [Example A23]
AMARE damage score, application pre-emergence (Amaranthus retroflexus [1]): 5 | ABUTH damage score, application pre-emergence (Abutilon theophrasti [2]): 5 | SETFA damage score, application pre-emergence (Setaria faberi [3]): 5 | ECHCG damage score, application pre-emergence (Echinochloa crus-galli [4]): 5 | ZEAMX damage score, application pre-emergence (Zea mays [5]): 2 | AMARE damage score, application post-emergence (Amaranthus retroflexus [6]): 5 | ABUTH damage score, application post-emergence (Abutilon theophrasti [7]): 5 | ECHCG damage score, application post-emergence (Echinochloa crus-galli [8]): 5 | ZEAMX damage score, application post-emergence (Zea mays [9]): 3 | SETFA damage score, application post-emergence (Setaria faberi [10]): 5

CN1CC(O)N(c2cc(C(C)(F)F)cnn2)C1=O (centres unmarked) [Example A20]
AMARE damage score, application pre-emergence (Amaranthus retroflexus [1]): 5 | ABUTH damage score, application pre-emergence (Abutilon theophrasti [2]): 5 | SETFA damage score, application pre-emergence (Setaria faberi [3]): 5 | ECHCG damage score, application pre-emergence (Echinochloa crus-galli [4]): 5 | ZEAMX damage score, application pre-emergence (Zea mays [5]): 3 | AMARE damage score, application post-emergence (Amaranthus retroflexus [6]): 5 | ABUTH damage score, application post-emergence (Abutilon theophrasti [7]): 5 | ECHCG damage score, application post-emergence (Echinochloa crus-galli [8]): 5 | ZEAMX damage score, application post-emergence (Zea mays [9]): 5 | SETFA damage score, application post-emergence (Setaria faberi [10]): 5

CC1C(O)N(c2cc(C(F)(F)F)c(Cl)nn2)C(=O)N1C (centres unmarked) [Example A16]
AMARE damage score, application pre-emergence (Amaranthus retroflexus [1]): 5 | ABUTH damage score, application pre-emergence (Abutilon theophrasti [2]): 5 | SETFA damage score, application pre-emergence (Setaria faberi [3]): 3 | ECHCG damage score, application pre-emergence (Echinochloa crus-galli [4]): 5 | ZEAMX damage score, application pre-emergence (Zea mays [5]): 3 | AMARE damage score, application post-emergence (Amaranthus retroflexus [6]): 5 | ABUTH damage score, application post-emergence (Abutilon theophrasti [7]): 5 | ECHCG damage score, application post-emergence (Echinochloa crus-galli [8]): 5 | ZEAMX damage score, application post-emergence (Zea mays [9]): 3 | SETFA damage score, application post-emergence (Setaria faberi [10]): 5

CN1CC(O)N(c2cc(C(C)(C)F)c(-c3ccccc3)nn2)C1=O (centres unmarked) [Example A4]
AMARE damage score, application pre-emergence (Amaranthus retroflexus [1]): 5 | SETFA damage score, application pre-emergence (Setaria faberi [3]): 5 | ECHCG damage score, application pre-emergence (Echinochloa crus-galli [4]): 5 | ALOMY damage score, application pre-emergence (Alopecurus myosuroides [11]): 4 | AMARE damage score, application post-emergence (Amaranthus retroflexus [6]): 5 | ABUTH damage score, application post-emergence (Abutilon theophrasti [7]): 5 | ALOMY damage score, application post-emergence (Alopecurus myosuroides [12]): 5 | ECHCG damage score, application post-emergence (Echinochloa crus-galli [8]): 5 | ZEAMX damage score, application post-emergence (Zea mays [9]): 5 | SETFA damage score, application post-emergence (Setaria faberi [10]): 5

CN1CC(O)N(c2cc(C(C)(C)F)cnn2)C1=O (centres unmarked) [Example A18]
AMARE damage score, application pre-emergence (Amaranthus retroflexus [1]): 5 | ABUTH damage score, application pre-emergence (Abutilon theophrasti [2]): 5 | SETFA damage score, application pre-emergence (Setaria faberi [3]): 4 | ECHCG damage score, application pre-emergence (Echinochloa crus-galli [4]): 5 | ZEAMX damage score, application pre-emergence (Zea mays [5]): 2 | AMARE damage score, application post-emergence (Amaranthus retroflexus [6]): 5 | ABUTH damage score, application post-emergence (Abutilon theophrasti [7]): 5 | ECHCG damage score, application post-emergence (Echinochloa crus-galli [8]): 5 | ZEAMX damage score, application post-emergence (Zea mays [9]): 4 | SETFA damage score, application post-emergence (Setaria faberi [10]): 5

CC1C(O)N(c2cc(C(F)(F)F)cnn2)C(=O)N1C (centres unmarked) [Example A21]
AMARE damage score, application pre-emergence (Amaranthus retroflexus [1]): 5 | ABUTH damage score, application pre-emergence (Abutilon theophrasti [2]): 5 | SETFA damage score, application pre-emergence (Setaria faberi [3]): 5 | ECHCG damage score, application pre-emergence (Echinochloa crus-galli [4]): 5 | ZEAMX damage score, application pre-emergence (Zea mays [5]): 3 | AMARE damage score, application post-emergence (Amaranthus retroflexus [6]): 5 | ABUTH damage score, application post-emergence (Abutilon theophrasti [7]): 5 | ECHCG damage score, application post-emergence (Echinochloa crus-galli [8]): 5 | ZEAMX damage score, application post-emergence (Zea mays [9]): 5 | SETFA damage score, application post-emergence (Setaria faberi [10]): 5
